Assay results: US7244586B2, “DNA molecules encoding ligand-gated ion channels from Drosophila melanogaster” (Merck & Co., Inc., priority 2000, dated 2007)

Test system: DmLGIC AC15
Conditions: AC15 clone expressed in Xenopus oocyte
Protocol: Full length cDNA clones corresponding to the selected RT-PCR sequences were used as template for synthesis of in vitro transcribed RNA (Ambion Inc.). The capped cRNA transcripts are synthesized using appropriate oligonucleotide primers and the mMESSAGE mMACHINE in vitro RNA transcription kit from Ambion. Xenopus laevis oocytes were prepared and injected using standard methods as described (Arena et al., 1991, Mol. Pharmacol. 40: 368–374; Arena et al, 1992, Mol. Brain Res. 15: 339–348). Adult female Xenopus laevis were anesthetized with 0.17% tricaine methanesulfonate and the ovaries were surgically removed and placed in a dish consisting of (mM): NaCl 82.5, KCl 2, MgCl2 1, CaCl2 1.8, HEPES 5, adjusted to pH 7.5 with NaOH (OR-2). Ovarian lobes were broken open, rinsed several times, and gently shaken in OR-2 containing 0.2% collagenase (Sigma, Type 1A) for 2–5 hours. When approximately 50% of the follicular layers were removed, Stage V and VI oocytes were selected and placed in media consisting of (mM): NaCl 86, KCl 2, MgCl2 1, CaCl2 1.8, HEPES 5, Na pyruvate 2.5, theophylline 0.5, gentamicin 0.1 adjusted to pH 7.5 with NaOH (ND-96) for 24–48 hours before injection. For most experiments, oocytes were injected with 10 ng of cRNA in 50 nl of RNase free water. Control oocytes were injected with 50 nl of water. […]

In the case of `NCCc1c[nH]cn1` [histamine], the “response of functional single channel protein to addition of histamine” value was “responds to the addition of histamine”.
